Assays:
[1] = test system: women with postpartum depression; experiment: Mean change in HAM-D score, ganaxolone versus placebo treatment groups; format: in vivo, human; settings: worded as 'in certain embodiments'
Description: The Hamilton Depression Rating Scale (HAM-D) is a commonly-used semi-structured clinician-rated instrument which assesses the range of symptoms that are most frequently observed in subjects with major depression. HAM-D has undergone a considerable amount of psychometric study and is accepted as a valid standard of symptom outcome assessment in studies of major depression. In the examples disclosed herein HAM-D was scored using the original 17-item HAM-D scale (HAM-D17).
Administration of ganaxolone in accordance with the methods of the present invention may provide a mean change in HAM-D score (i.e., least-squares (LS) mean reduction) at about 6 hours and/or at about 12 hours and/or about 24 hours (about 1 day) and/or about 48 hours (about 2 days) and/or about 60 hours (about 2.5 days) and/or about 72 hours (about 3 days) and/or about 11 days and/or about 30 days and/or about 34 days of from about 2 to about 17. In the preferred embodiments, the mean change in HAM-D score is greater than placebo.
The primary efficacy endpoint is HAM-D17 total score change from baseline to 60 hours post-infusion (on Day 3) for Cohorts 1-3 and to Day 29 for Cohort 6. The primary analysis in each cohort is done using the mITT set. Although the trial is not powered for inferential analysis and there is no consideration for control of type 1 error across multiple cohorts, a clinically meaningful numeric difference in means of 3-4 points, based on mITT analysis, between ganaxalone and placebo treatment groups is considered an indication of acceptable efficacy and is be the most influential outcome in the overall assessment of the efficacy of ganaxolone in treating PPD.

[2] = human plasma following oral administration; cited from earlier work
[3] = target: human ether-a-go-go related gene (hERG) receptor (Homo sapiens, UniProt Q12809); experiment: hERG interaction (safety pharmacology); settings: measured concentration of 70 nM (n=2)
[4] = test system: cytochrome P450 (CYP) isoenzymes 1A1/2 and 2B1/2; experiment: Induction of cytochrome P450 isoenzymes in rats; settings: female rats but not males

human ether-a-go-go related gene (hERG) receptor, sequence (Q12809 whole entry): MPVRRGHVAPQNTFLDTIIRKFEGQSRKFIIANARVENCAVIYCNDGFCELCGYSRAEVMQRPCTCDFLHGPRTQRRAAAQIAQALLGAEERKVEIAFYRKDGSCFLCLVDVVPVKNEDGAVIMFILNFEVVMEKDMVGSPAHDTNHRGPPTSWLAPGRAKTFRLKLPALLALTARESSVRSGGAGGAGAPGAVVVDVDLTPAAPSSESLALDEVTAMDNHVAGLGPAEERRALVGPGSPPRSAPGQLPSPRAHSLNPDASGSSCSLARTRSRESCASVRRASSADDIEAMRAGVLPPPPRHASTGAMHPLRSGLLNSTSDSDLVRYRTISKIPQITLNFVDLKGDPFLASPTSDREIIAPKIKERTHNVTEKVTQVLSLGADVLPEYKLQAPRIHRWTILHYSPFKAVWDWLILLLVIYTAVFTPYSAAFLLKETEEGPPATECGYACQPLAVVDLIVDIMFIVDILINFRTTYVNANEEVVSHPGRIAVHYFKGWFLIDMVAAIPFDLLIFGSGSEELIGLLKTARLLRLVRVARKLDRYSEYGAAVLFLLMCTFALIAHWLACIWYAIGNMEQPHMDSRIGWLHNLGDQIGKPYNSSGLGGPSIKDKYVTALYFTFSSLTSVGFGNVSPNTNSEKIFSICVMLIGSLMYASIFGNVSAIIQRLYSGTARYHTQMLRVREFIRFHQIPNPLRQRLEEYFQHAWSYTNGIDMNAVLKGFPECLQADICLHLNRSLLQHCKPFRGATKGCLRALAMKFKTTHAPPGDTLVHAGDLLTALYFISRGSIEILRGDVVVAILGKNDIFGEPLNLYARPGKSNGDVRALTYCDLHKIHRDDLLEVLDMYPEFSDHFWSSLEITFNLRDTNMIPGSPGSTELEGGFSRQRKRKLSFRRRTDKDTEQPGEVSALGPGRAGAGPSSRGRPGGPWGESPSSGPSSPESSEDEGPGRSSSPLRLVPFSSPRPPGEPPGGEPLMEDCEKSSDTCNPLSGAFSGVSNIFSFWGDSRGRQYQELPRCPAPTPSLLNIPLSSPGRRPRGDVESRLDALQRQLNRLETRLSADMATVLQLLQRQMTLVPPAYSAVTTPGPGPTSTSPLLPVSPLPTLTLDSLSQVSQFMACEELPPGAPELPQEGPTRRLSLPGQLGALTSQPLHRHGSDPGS

SMILES: CC(=O)[C@H]1CC[C@H]2[C@@H]3CC[C@H]4C[C@](C)(O)CC[C@]4(C)[C@H]3CC[C@]12C [ganaxolone, 3α-hydroxy-3β-methyl-5α-pregnan-20-one]
- Difference between ganaxolone and placebo treatment groups in mean change in HAM-D score ([1]; 12 hours): 0.7
- Difference between ganaxolone and placebo treatment groups in mean change in HAM-D score ([1]; 24 hours): 1.5
- Difference between ganaxolone and placebo treatment groups in mean change in HAM-D score ([1]; 48 hours): 5.6
- Difference between ganaxolone and placebo treatment groups in mean change in HAM-D score ([1]; 60 hours): 4.2
- Difference between ganaxolone and placebo treatment groups in mean change in HAM-D score ([1]; 72 hours): 2.9
- Difference between ganaxolone and placebo treatment groups in mean change in HAM-D score ([1]; 11 days): 5.9
- Difference between ganaxolone and placebo treatment groups in mean change in HAM-D score ([1]; 34 days): 4.1
- Half-life [2]: approximately 20 hours
- Interaction with hERG receptor [3]: did not interact
- Induction of CYP isoenzymes 1A1/2 and 2B1/2 [4]: induces
